Results: patent publication US20210127673A1, “HERBICIDES” (SYNGENTA PARTICIPATIONS AG, priority 2016, published 2021)

Experiments:
Format in all cases: in vivo
Settings in all cases: 1000 g/ha, evaluated after 13 days
[1] = test system: Triticum aestivium (TRZAW); assay: Pre-emergence herbicidal activity, Triticum aestivium; design: key: 5=total damage to plant; 0=no damage to plant
How it was run: (§1)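 Damage is rated on a 0–5 scale (0 = no damage, 5 = total damage) 13 days after treatment. Pots of sown seed are sprayed one day after sowing with an aqueous solution from acetone/water (50:50) with 0.5% Tween 20, then kept under controlled glasshouse conditions.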

[2] = test system: Avena fatua (AVEFA); assay: Pre-emergence herbicidal activity, Avena fatua; design: key: 5=total damage to plant; 0=no damage to plant
How it was run: as §1

[3] = test system: Alopecurus myosuroides (ALOMY); assay: Pre-emergence herbicidal activity, Alopecurus myosuroides; design: key: 5=total damage to plant; 0=no damage to plant
How it was run: as §1

[4] = test system: Echinochloa crus-galli (ECHCG); assay: Pre-emergence herbicidal activity, Echinochloa crus-galli; design: key: 5=total damage to plant; 0=no damage to plant
How it was run: as §1

[5] = test system: Lolium perenne (LOLPE); assay: Pre-emergence herbicidal activity, Lolium perenne; design: key: 5=total damage to plant; 0=no damage to plant
How it was run: as §1

[6] = test system: Setaria faberi (SETFA); assay: Pre-emergence herbicidal activity, Setaria faberi; design: key: 5=total damage to plant; 0=no damage to plant
How it was run: as §1

[7] = test system: Triticum aestivium (TRZAW); assay: Post-emergence herbicidal activity, Triticum aestivium; design: key: 5=total damage to plant; 0=no damage to plant
How it was run: (§2)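 Each value is a visual damage score from 0 (no effect) to 5 (plant killed), assessed 13 days after a foliar spray applied to 8-day-old plants. The compound was applied in acetone/water 50:50 with 0.5% Tween 20 under controlled glasshouse conditions.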

[8] = test system: Avena fatua (AVEFA); assay: Post-emergence herbicidal activity, Avena fatua
How it was run: as §2

[9] = test system: Alopecurus myosuroides (ALOMY); assay: Post-emergence herbicidal activity, Alopecurus myosuroides; design: key: 5=total damage to plant; 0=no damage to plant
How it was run: as §2

[10] = test system: Echinochloa crus-galli (ECHCG); assay: Post-emergence herbicidal activity, Echinochloa crus-galli; design: key: 5=total damage to plant; 0=no damage to plant
How it was run: as §2

[11] = test system: Lolium perenne (LOLPE); assay: Post-emergence herbicidal activity, Lolium perenne; design: key: 5=total damage to plant; 0=no damage to plant
How it was run: as §2

[12] = test system: Setaria faberi (SETFA); assay: Post-emergence herbicidal activity, Setaria faberi; design: key: 5=total damage to plant; 0=no damage to plant
How it was run: as §2

Compound	Control of TRAZW after pre-emergence application (score 0-5) [1]	Control of AVEFA after pre-emergence application (score 0-5) [2]	Control of ALOMY after pre-emergence application (score 0-5) [3]	Control of ECHCG after pre-emergence application (score 0-5) [4]	Control of LOLPE after pre-emergence application (score 0-5) [5]	Control of SETFA after pre-emergence application (score 0-5) [6]	Control of TRAZW after post-emergence application (score 0-5) [7]	Control of AVEFA after post-emergence application (score 0-5) [8]	Control of ALOMY after post-emergence application (score 0-5) [9]	Control of ECHCG after post-emergence application (score 0-5) [10]	Control of LOLPE after post-emergence application (score 0-5) [11]	Control of SETFA after post-emergence application (score 0-5) [12]
C=CCN(C(=O)N(C)C)c1ccc(-c2cncc(F)c2)nc1C(F)(F)F [Compound B123]	0	1	0	3	1	5	1	2	2	3	1	5
C=CCN(C(=O)OC(C)(C)C)c1ccc(-c2cncnc2)nc1C(F)(F)F [Compound B35]	0	0	0	2	1	4	1	2	0	3	2	5
O=C(Nc1ccc(-c2cncc(F)c2)nc1C(F)(F)F)NN1CCOCC1 [Compound B69]	0	1	0	2	1	4	1	3	0	4	2	4
CC(C)(C)OC(=O)Nc1ccc(-c2cncc(F)c2)nc1-c1ccccc1 [Compound B112, tert-butyl N-[6-(5-fluoro-3-pyridyl)-2-phenyl-3-pyridyl]carbamate]	0	0	0	3	0	4	0	1	0	1	0	3
NC(=O)Nc1ccc(-c2cncc(F)c2)nc1C(F)(F)F [Compound B47]	0	1	0	4	1	5	0	3	0	4	2	5
N#CC1(NC(=O)Nc2ccc(-c3cncc(F)c3)nc2C(F)(F)F)CCC1 [Compound B81]	0	1	1	5	1	5	1	3	1	5	2	5
